For one assay, the system named is Kasumi-1 cells. The experiment in a line: Kasumi-1 cellular viability assay (ATP-Lite, 72 h). It counts as cell-based. Conditions: Homo sapiens, ATP-Lite luminescence, % viability relative to DMSO. As to the method: Kasumi-1 cell line was purchased from ATCC (ATCC® CRL2724™). Cells were isolated from the peripheral blood of a child with acute myeloid leukemia (AML FAB M2) (in 2nd relapse after bone marrow transplantation) in 1989. Most cells are round. Kasumi-1 cells are observed to grow individually or in small clumps in suspension.
Kasumi-1 cells are cultured in RPMI-1640 (Gibco A10491-01) containing 10% heat-inactivated and 0.22 μm filtered FBS (Gibco 10270-106) at a density of 3E+5 and 3E+6 viable cell/mL following the certificate of analysis.
(§1) Cellular viability assay: Kasumi-1 cells were plated (50 μL) in 96-well cell culture microplates (PS, F-Bottom black, Cellstar, Greiner 655086) at final concentration of 15000 cells/well. The compounds of the invention were dissolved in DMSO, and a titration curve was generated at 1000× final concentration. Compounds were then diluted 500× in tissue culture medium (RPMI-1640, 10% FBS). Then 50 μl of test compound were added to Kasumi-1 cells in a final DMSO concentration of 0.1%, final volume 100 μl. A gas permeable sealing membrane was applied to the plate to prevent evaporation (Breathe-Easy sealing membrane, Sigma Z380059-1PK) and cells were incubated for 72 h at 37° C., 5% CO2, 80% RH. After 72h of treatment, the plates were taken out of the incubator and left for a few minutes at room temperature. 100 μl of the reconstituted reagent ATP-Lite One Step (Perkin Elmer, 6016739) was added to each well. The plates were shaken for 2 min at 700 rpm and placed in the dark for 10 minutes at room temperature before measurement of luminescence intensity with Envision instrument. The raw data were expressed in RLU. Results were expressed in % of viability relative to DMSO control and an IC50 was calculated based on the concentration-response profile of individual compounds.

In assay [1] the target is T1, recombinant METTL3/METTL14 complex (Homo sapiens, UniProt Q86U44).
T1 construct: purchased Active Motif 311970; host or cells: Sf9 cells
T1 sequence (Q86U44 whole entry): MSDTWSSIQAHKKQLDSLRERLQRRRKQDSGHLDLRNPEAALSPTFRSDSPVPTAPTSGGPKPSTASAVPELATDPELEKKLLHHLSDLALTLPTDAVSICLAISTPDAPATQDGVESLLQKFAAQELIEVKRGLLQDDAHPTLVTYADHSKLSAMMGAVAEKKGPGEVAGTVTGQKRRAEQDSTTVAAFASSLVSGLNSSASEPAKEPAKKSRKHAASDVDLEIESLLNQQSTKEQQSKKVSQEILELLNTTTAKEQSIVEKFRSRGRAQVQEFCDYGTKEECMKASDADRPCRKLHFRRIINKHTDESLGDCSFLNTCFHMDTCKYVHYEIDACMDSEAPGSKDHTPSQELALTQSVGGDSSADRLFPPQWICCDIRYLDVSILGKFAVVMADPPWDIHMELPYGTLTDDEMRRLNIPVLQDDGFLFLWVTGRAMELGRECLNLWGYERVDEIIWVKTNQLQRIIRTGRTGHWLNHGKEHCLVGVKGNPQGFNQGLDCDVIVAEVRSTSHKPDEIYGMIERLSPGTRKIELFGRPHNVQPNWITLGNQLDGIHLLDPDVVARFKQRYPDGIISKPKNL
T1 sequence (Q9HCE5 whole entry partner): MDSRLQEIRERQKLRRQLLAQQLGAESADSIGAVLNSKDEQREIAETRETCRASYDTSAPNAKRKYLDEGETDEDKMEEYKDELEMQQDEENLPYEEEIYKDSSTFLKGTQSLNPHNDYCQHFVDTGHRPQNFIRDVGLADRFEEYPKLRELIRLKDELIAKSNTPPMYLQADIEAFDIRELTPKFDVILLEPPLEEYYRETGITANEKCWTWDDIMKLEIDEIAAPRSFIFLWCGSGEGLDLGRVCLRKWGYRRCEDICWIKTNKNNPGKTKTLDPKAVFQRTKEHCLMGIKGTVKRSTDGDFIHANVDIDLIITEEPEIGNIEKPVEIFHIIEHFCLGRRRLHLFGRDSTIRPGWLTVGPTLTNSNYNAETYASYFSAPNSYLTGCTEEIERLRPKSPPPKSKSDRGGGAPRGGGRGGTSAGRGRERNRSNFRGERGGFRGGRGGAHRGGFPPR
The assay is described as follows: METTL3/14 Scintillation Proximity Assay (SPA), RNA methyltransferase activity. Conditions: 5.31 nM METTL3/14 complex, 250 nM RNA substrate, 1 μM 3H-SAM, 90 min; for compounds marked * best of the two separated forms. It counts as biochemical.

A further assay concerns Caov-3 cells. The experiment in a line: Caov-3 cellular viability assay (ATP-Lite, 72 h). It counts as cell-based. Conditions: Homo sapiens, ATP-Lite luminescence, % viability relative to DMSO. How it is done: Caov-3 cell line was purchased from ATCC (ATCC® HTB-75™). Cells were isolated from the ovary of a ovarian cancer patient.
Caov-3 cells are cultured in DMEM (ATCC 30-2002) containing 10% heat-inactivated and 0.22 μm filtered FBS (Gibco 10270-106). The cells are seeded at 2.5E+4cell/cm^2 within the recommended subcultivation ratio of 1:3 to 1:6, as stated on the certificate of analysis issues by the provider of the cells.
as §1, with “assay: Caov-3” for “assay: Kasumi-1”, “of 10000” for “of 15000”, “to Caov-3” for “to Kasumi-1”, “After 72 h” for “After 72h”, “6016739) were” for “6016739) was”

Some results are limits rather than exact numbers.

In general, IC50 refers to the point on the concentration scale where inhibition reaches its midpoint. Consider `COc1cncc(-c2ncc(Cn3ccc(N4CCC[C@@H](NCC5CCC5)C4)cc3=O)s2)c1` [Compound 097, (R)-4-(3-((cyclobutylmethyl)amino)piperidin-1-yl)-1-((2-(5-methoxypyridin-3-yl)thiazol-5-yl)methyl)pyridin-2(1H)-one], for which the IC50 with Kasumi-1 cells is at most 500 nM; in assay [1], at most 50 nM; with Caov-3 cells it was at most 500 nM.

For the compound `CC(n1cc(-c2cncc(N(C)C)n2)nn1)n1ccc(N2CCC[C@@H](NCC3CC3)C2)cc1=O` (single isomer, unassigned) [Compound 186], the results for the IC50 (in the assay on Kasumi-1 cells; in assay [1]; in the assay on Caov-3 cells) were at most 500 nM, at most 50 nM and at most 500 nM, respectively.

As for `CC(n1cc(-c2cncc(N3CCCC3)c2)nn1)n1ccc(N2CCC[C@@H](NCC3CC3)C2)cc1=O` (single isomer, unassigned) [Compound 176], the half-maximal inhibitory concentration (IC50) in the assay on Kasumi-1 cells is at most 500 nM; in assay [1], at most 50 nM; in the assay on Caov-3 cells, at most 500 nM.

Regarding `O=C(Nc1cncc(N2CCCC2)n1)C1(c2ccc(N3CCC[C@@H](NCC4CCC4)C3)cc2)COC1` [Compound 281, (R)-3-(4-(3-((cyclobutylmethyl)amino)piperidin-1-yl)phenyl)-N-(6-(pyrrolidin-1-yl)pyrazin-2-yl)oxetane-3-carboxamide], the half-inhibitory concentration (IC50) with Kasumi-1 cells was at most 500 nM; in assay [1], at most 50 nM; with Caov-3 cells, at most 500 nM.

With `COc1cncc(-c2nnc(Cn3ccc(N4CCC[C@@H](NCC5CCC5)C4)cc3=O)s2)c1` [Compound 077, (R)-4-(3-((cyclobutylmethyl)amino)piperidin-1-yl)-1-((5-(5-methoxypyridin-3-yl)-1,3,4-thiadiazol-2-yl)methyl)pyridin-2(1H)-one], the IC50 with Kasumi-1 cells is 500 to 5000 nM; in assay [1], at most 50 nM; with Caov-3 cells, 500 to 5000 nM.

Regarding `CC(c1ccc(N2CCC[C@@H](NCC3CC3)C2)nn1)c1nnc(-c2cncc(C3CC3)c2)s1` (stereo partly drawn) [Compound 358, (3R)—N-(cyclopropylmethyl)-1-(6-(1-(5-(5-cyclopropylpyridin-3-yl)-1,3,4-thiadiazol-2-yl)ethyl)pyridazin-3-yl)piperidin-3-amine], the values for the IC50 (in the assay with Kasumi-1 cells; in assay [1]; in the assay on Caov-3 cells) were 500 to 5000 nM, at most 50 nM and at most 500 nM, respectively.

Take `CC(n1nnc(-c2cncc(N(C)C)c2)n1)n1ccc(N2CCC[C@@H](NCC3CCC3)C2)cc1=O` (single isomer, unassigned) [Compound 179]: the half-inhibitory concentration (IC50) with Kasumi-1 cells was at most 500 nM; in assay [1], at most 50 nM; in the assay on Caov-3 cells, at most 500 nM.

Regarding `CC(c1ccc(N2CCC[C@@H](NCC3CC3)C2)nn1)n1cc(-c2cncc(C3CC3)c2)nn1` (single isomer, unassigned) [Compound 317], the IC50 in the assay on Kasumi-1 cells is at most 500 nM; in assay [1] it was at most 50 nM; in the assay with Caov-3 cells, at most 500 nM.

For `COc1cncc(-c2cn(Cc3ccc(N4CCC[C@@H](NCC5CCC5)C4)nn3)cn2)c1` [Compound 081, (R)-N-(cyclobutylmethyl)-1-(6-((4-(5-methoxypyridin-3-yl)-1H-imidazol-1-yl)methyl)pyridazin-3-yl)piperidin-3-amine], the IC50 in the assay on Kasumi-1 cells is 500 to 5000 nM; in assay [1] it was at most 50 nM; in the assay with Caov-3 cells, at most 500 nM.

Turning to `COc1cncc(-c2cn(C(C)c3ccc(N4CCC[C@@H](NCC5CCC5)C4)nn3)nn2)c1` (single isomer, unassigned) [Compound 066], the 50% inhibitory concentration (IC50) in the assay with Kasumi-1 cells is 500 to 5000 nM; in assay [1], at most 50 nM; in the assay on Caov-3 cells, 500 to 5000 nM.

As to `COc1cncc(-c2cn(C(C)n3ccc(N4CCC[C@@H](NCC5CC5)C4)cc3=O)nn2)c1` (single isomer, unassigned) [Compound 232], the half-inhibitory concentration (IC50) in the assay with Kasumi-1 cells is at most 500 nM; in assay [1], at most 50 nM; in the assay on Caov-3 cells it was at most 500 nM.

Regarding `O=C(Nc1cc(=O)n2ccccc2n1)C1(c2ccc(N3CCC[C@@H](NCC4CC4)C3)nc2)COC1` [Compound 321, (R)-3-(6-(3-((cyclopropylmethyl)amino)piperidin-1-yl)pyridin-3-yl)-N-(4-oxo-4H-pyrido[1,2-a]pyrimidin-2-yl)oxetane-3-carboxamide], the IC50 with Kasumi-1 cells is 500 to 5000 nM; in assay [1] it was at most 50 nM; in the assay on Caov-3 cells, 500 to 5000 nM.

Take `CN(C)c1cncc(NC(=O)C2(c3ccc(N4CCC[C@@H](NCC5CC5)C4)cn3)COC2)c1` [Compound 175, (R)-3-(5-(3-((cyclopropylmethyl)amino)piperidin-1-yl)pyridin-2-yl)-N-(5-(dimethylamino)pyridin-3-yl)oxetane-3-carboxamide]: the half-inhibitory concentration (IC50) is 500 to 5000 nM in the assay on Kasumi-1 cells, at most 50 nM in assay [1] and 500 to 5000 nM in the assay on Caov-3 cells.

Consider `CC(c1nnc(-c2cncc(N(C)C)n2)s1)n1ccc(N2CCC[C@@H](NCC3CC3)C2)cc1=O` (stereo partly drawn) [Compound 231, 4-((R)-3-((cyclopropylmethyl)amino)piperidin-1-yl)-1-(1-(5-(6-(dimethylamino)pyrazin-2-yl)-1,3,4-thiadiazol-2-yl)ethyl)pyridin-2(1H)-one], for which the IC50 in the assay with Kasumi-1 cells was at most 500 nM; in assay [1] it was at most 50 nM; in the assay on Caov-3 cells, at most 500 nM.

With `O=C(Nc1cc(=O)n2ccccc2n1)C1(c2ccc(N3CCC[C@@H](NCC4(C(F)(F)F)CC4)C3)cn2)COC1` [Compound 328, (R)-N-(4-oxo-4H-pyrido[1,2-a]pyrimidin-2-yl)-3-(5-(3-(((1-(trifluoromethyl)cyclopropyl)methyl)amino)piperidin-1-yl)pyridin-2-yl)oxetane-3-carboxamide], the IC50 in the assay on Kasumi-1 cells is 500 to 5000 nM; in assay [1], at most 50 nM; in the assay on Caov-3 cells, at most 500 nM.

Take `COc1cc(-c2cn(Cc3ccc(N4CCCC(N5CCC(C)CC5)C4)nn3)nn2)c2cn[nH]c2c1` (stereo not drawn) [Compound 007, 6-methoxy-4-(1-((6-(4-methyl-[1,3′-bipiperidin]-1′-yl)pyridazin-3-yl)methyl)-1H-1,2,3-triazol-4-yl)-1H-indazole]: the IC50 in the assay on Kasumi-1 cells was 500 to 5000 nM; in assay [1] it was at most 50 nM; in the assay on Caov-3 cells it was 500 to 5000 nM.

Turning to `O=C(Nc1cncc(N2CCCC2)n1)C1(c2ccc(N3CCC[C@@H](NCC4CCC4)C3)cn2)COC1` [Compound 262, (R)-3-(5-(3-((cyclobutylmethyl)amino)piperidin-1-yl)pyridin-2-yl)-N-(6-(pyrrolidin-1-yl)pyrazin-2-yl)oxetane-3-carboxamide], the 50% inhibitory concentration (IC50) in the assay with Kasumi-1 cells was at most 500 nM; in assay [1], at most 50 nM; in the assay on Caov-3 cells it was at most 500 nM.

In the case of `c1ncc(N2CCCC2)cc1-c1cn(C2(c3ccc(N4CCC[C@@H](NCC5CC5)C4)nn3)COC2)nn1` [Compound 212, (R)-N-(cyclopropylmethyl)-1-(6-(3-(4-(5-(pyrrolidin-1-yl)pyridin-3-yl)-1H-1,2,3-triazol-1-yl)oxetan-3-yl)pyridazin-3-yl)piperidin-3-amine], the IC50 was at most 500 nM in the assay with Kasumi-1 cells, at most 50 nM in assay [1] and at most 500 nM in the assay with Caov-3 cells.

As for `COc1cc(-c2cn(Cc3ccc(N4CCC[C@@H](NCCC(C)(C)C)C4)nn3)nn2)c2cn[nH]c2c1` [Compound 024, (R)-N-(3,3-dimethylbutyl)-1-(6-((4-(6-methoxy-1H-indazol-4-yl)-1H-1,2,3-triazol-1-yl)methyl)pyridazin-3-yl)piperidin-3-amine], the half-inhibitory concentration (IC50) was above 5000 nM with Kasumi-1 cells, at most 50 nM in assay [1] and above 5000 nM with Caov-3 cells.
